Data from patent publication US11433033B2, “2,4-dinitrophenol formulations and methods using same” (priority 2013, dated 2022).
Entries after “also recorded” stand apart in the source; their conditions may differ. Read-outs that look alike come from different tables or passages of the source.

Tests used:
[1] = test system: two-week high fat fed rats; format: in vivo, rat
Experimental: ERDNP was formulated by Emerson Resources Inc. (Malvern, Pa.) with sustained-release ethylcellulose coating. Rats used for the NAFLD reversal studies were fed high fat diet for 2 weeks, at the end of which they were treated for three days with peanut butter to acclimate them to this food. They were then treated daily with ERDNP mixed in peanut butter, or peanut butter vehicle, at the doses specified in the text daily for 5 days. Zucker Diabetic Fatty rats were treated with ERDNP (1 mg/kg) in peanut butter or peanut butter vehicle daily for 14 days. Blood glucose was measured by glucometer (Abbott) from the tail vein every three days.
(§1) Alanine aminotransferase, aspartate aminotransferase, and blood urea nitrogen were measured using the COBAS Mira Plus, and creatinine by LC/MS/MS. Body temperature was measured using a rectal probe (Physitemp Instruments). Histology slides were stained with hematoxylin & eosin, Sirius Red, and TUNEL stains.
(§2) Plasma triglycerides were measured using a Wako reagent. Liver and quadriceps triacylglycerol were extracted using the method of Bligh and Dyer (Bligh & Dyer, 1959, Can. J. Biochem. Physiol. 37:911-7) and quantified spectrophotometrically using a reagent from Diagnostic Chemicals Ltd. Liver and quadriceps DAG and ceramide concentrations were measured by liquid chromatography/mass spectrometry/mass spectrometry (LC/MS/MS) (Yu, et al., 2002, J. Biol. Chem. 277:50230-6), as were acylcarnitine concentrations (An, et al., 2004, Nat. Med. 10:268-74). Very low-density lipoprotein (VLDL) export was measured (Lee, et al., 2011, Hepatology 54:1650-60). Liver acetyl and malonyl CoA concentrations were measured by LC/MS/MS (Hosokawa, et al., 1986, Anal. Biochem. 153:45-9; Roughan, 1994, Biochem. J. 300:355-8).

[2] = test system: rat model of NAFLD and whole body insulin resistance; experiment: Continuous low dose intragastric DNP infusion (2 mg/kg per day, 5 days) in high fat fed rats; format: in vivo
Experimental: For the intragastric DNP infusion studies, rats previously fed high fat diet for 2 weeks were placed in a Covance infusion harness attached to a single-axis counter-balanced swivel mount and a stainless steel one-channel swivel (all from Instech Solomon) to protect the catheters and allow the animals free access to the cage. DNP (2 mg/kg per day) or vehicle (10% dimethylsulfoxide/90% saline vehicle) was infused continuously through the […] for 5 days.
Plasma insulin and glucagon were measured by radioimmunoassay. Plasma glucose was measured enzymatically by the YSI Life Sciences 2700 Select Biochemistry Analyzer. Plasma concentrations of twelve inflammatory markers, adiponectin, and FGF-21 were assessed by ELISA (QIAGEN, Life Technologies, and Millipore, respectively). Liver glycogen was measured by amyloglucosidase digestion (Passonneau & Lauderdale, 1974, Anal. Biochem. 60:405-12). Non-esterified fatty acid concentrations were measured by an enzymatic kit (Wako).
as §2

in vivo [3] = format: in vivo, Sprague-Dawley rats; conditions: for concentration at 5 days: Sprague-Dawley, rat, in vivo, 2 mg/kg per day
rats = experiment: Toxicity studies: rectal temperature, liver enzymes, BUN, creatinine, histology; format: in vivo, rat
Experimental: as §1
Liver and kidney samples were prepared and stained with hematoxylin & eosin by the Yale Research Histology core, and analyzed as described (Kleiner et al., 2005, Hepatology 41:1313-1321).

in vivo [4] = format: in vivo, Sprague-Dawley rats
Experimental: Rats consumed the concentrations of DNP or ERDNP specified in the text orally, mixed in peanut butter. All rats used for the kinetics studies consumed the entirety of the peanut butter and protonophore within 2 minutes.
DNP concentrations were measured in plasma, liver, kidney, WAT, quadriceps, heart, and brain of Sprague-Dawley rats by LC/MS/MS (Perry, et al., 2013, Cell. Metab. 18:740-8). Rats treated with DNP were sacrificed 1 hour after treatment with DNP, and those treated with ERDNP were sacrificed 8 hours after treatment, as these were the times determined in the plasma DNP studies to represent the peak plasma DNP concentrations (FIGS. 21A-21B). The minimal detection limit of the method was determined to be […], as this was the minimum concentration of solutions of known quantities of DNP in DMSO measured by the method with less than 20% error in each of three replicates.
LC/MS/MS method development and analysis were performed on the Applied Biosystems 4000 QTRAP (Foster City, Calif.), equipped with a Shimadzu ultra fast liquid chromatography (UFLC) system. Electrospray ionization (ESI) source with negative-ion detection was shown as the most sensitive for both qualitative and quantitative analysis of DNP. The quantitative analysis of DNP was monitored in MRM mode with an ion pair (183.0/109.0). The preferred parameters are: curtain gas 25; collision gas 9, probe temperature 480° C.; […]; ion source gas 2 25; declustering potential (DP) −45 V; entrance potential (EP) −10 V; collision energy (CE) −35 V and collision cell exit potential −12 V.
Plasma samples (10-100 μL) were mixed with 2.0 ml pre-chilled chloroform/methanol (v/v: 2/1) containing 0.01% BHT in 5 ml glass vials, to which was added 250 μl water together with 10 nmol DNP-D3 and 10 nmol DNPME-D6 as the internal standards. The mixtures were vortexed for 10 seconds before centrifugation at 4000 rpm for 10 min. The bottom organic layer was carefully collected and dried with a steady stream of nitrogen gas. The residual was reconstituted in 200 μl methanol for LC/MS/MS analysis for DNP and/or DNPME metabolites.
Frozen tissue samples (˜100 mg) were weighed and suspended in 2 ml microcentrifuge tubes with 1.6 ml pre-chilled chloroform/methanol (v/v: 2/1) containing 0.01% BHT and one metal bead, and then added 10 nmol DNP-d3 (Cambridge Isotopes, Andover, Mass.) as the internal standards. The tissue samples were disrupted with Qiagen TissueLyser at 30 Hz for 15 min, and then transferred into 5 ml glass vials, followed by addition of 0.5 ml chloroform and 250 μl water into each samples. The samples were centrifuged at 4000 rpm for 10 min after vortexed for 10 seconds. The bottom organic layer was collected and dried with a gentle flow of nitrogen. The residual was reconstituted in 200 μl methanol for LC/MS/MS analysis of DNP.

high fat fed rats = experiment: Hepatic fluxes (VTCA, VPC, Vfa, VPDH) by [3-13C] lactate infusion, NMR-LC/MS/MS; conditions: rat, in vivo
Experimental: To measure total glutamate enrichment from livers of rats infused with [3-^13C] lactate, ˜100 mg frozen liver were homogenized in 400 μL ice-cold 50% acetonitrile. The samples were centrifuged at 10,000 g for 10 min, and the supernatant was isolated. After overnight storage at 4° C., the samples were centrifuged at 10,000 g for 10 min through a Nanosep 100 k Omega filter (Pall Life Sciences). The flow-through was separated on a hypercarb column (Thermo Scientific; 4.6×100 mm; 5 μm particle size) before ionization for multiple reaction monitoring analysis by LC/MS/MS (Applied Biosystems MDS SCIEX, 4000 Q-TRAP). […]
Spectra were acquired with relaxation time=1 s, dummy scans=32, and number of scans=8,192 per block×3 blocks. Correction factors for differences in T relaxation times were determined from fully relaxed spectra of natural abundance glutamate and glucose solutions. […]
Total glucose enrichment in the NMR extract was determined by derivatizing 20 μL of the NMR extract with 100 μL methanol, then drying overnight in a Speed-Vac. […]
To measure positional alanine enrichment from [3-^13C] lactate infused rat livers, liver samples were extracted for NMR as described above, and the enrichment at [2-^13C] and [3-^13C] alanine was measured by proton-observed, carbon-edited NMR as we have reported (Alves et al., 2011, Hepatology 53:1175-1181). […]

[5] = intragastric DNP 2 mg/kg per day, 5 days

Compound: O=[N+]([O-])c1ccc(O)c([N+](=O)[O-])c1 [DNP, 2,4-dinitrophenol]
- daily doses that raised ALT ([1]; daily for five days): above 2 mg/kg
- daily doses that raised AST concentrations ([1]; daily for five days): above 1 mg/kg
- effect of the highest dose on BUN ([1]; daily for five days): raised BUN
- lowest effective dose to decrease liver triglyceride ([1]; daily for five days, two-week high fat fed rats): 5 mg/kg
- ratio of toxic to therapeutic dose ([1]; rats): 0.4
- toxic dose ([1]; rats): 2 mg/kg
- liver enzymes, blood urea nitrogen (BUN) or creatinine ([2]; chronic intragastric DNP infusion 2 mg/kg per day): no observed changes
- fasting plasma glucose and insulin concentrations [2, 5]: lower
- reductions in liver and muscle TAG and diacylglycerol (DAG) content [2, 5]: > 50%
- reductions in plasma triglycerides [2, 5]: > 80%
- tissue ceramide content [2, 5]: no changes
- concentration at 5 days (in vivo [3]; intragastric DNP infusion 2 mg/kg per day, 5 days, rats, read-out: steady state liver DNP concentration): ~1 µM
- concentration at 5 days (in vivo [3]; intragastric DNP infusion 2 mg/kg per day, 5 days, rats, read-out: steady state plasma DNP concentration): ~3 µM
- sustained plasma and tissue concentrations of DNP that reversed hepatic steatosis and insulin resistance (in vivo [3]; continuous intragastric DNP infusion, rat model of NAFLD): 1-3 VM
- plasma DNP concentrations, fold lower than the threshold where DNP toxicity is first detected (in vivo [3]; continuous low dose intragastric infusion of DNP): ~100 fold
- sustained plasma and liver concentrations of DNP that reversed fatty liver and whole body insulin resistance (in vivo [3]; continuous low dose intragastric infusion, high fat rat model of NAFLD): 1 to 3 µM
- DNP concentration in skeletal muscle (in vivo [3]; intragastric DNP infusion 2 mg/kg per day, 5 days, rats): negligible
- toxic plasma threshold of DNP (rats; plasma concentration): ~400 µM
- relation between plasma DNP concentration and body temperature (rats; rats treated with 10-50 mg/kg DNP): strong correlation
- tissue DNP concentrations after chronic treatment compared with one (or five) daily doses (in vivo [4]; 1 mg/kg per day, rats): no differences; also recorded: did not differ significantly
- maximum plasma concentration of DNP, fold higher with DNP treatment than with ERDNP (in vivo [4]; 25 mg/kg DNP versus 1 mg/kg ERDNP): 30 fold
- concentration at 8 hours (in vivo [4]; Sprague-Dawley, rat, in vivo, 1 mg/kg, 8 hours after the last of five daily 1 mg/kg doses (FIG. 21J), read-out: DNP concentrations in all tissues following chronic treatment): < 10 µM
- half-life (in vivo [4]; Sprague-Dawley, rat, in vivo, 25 mg/kg, plasma DNP, rats): 8 to 12 h
- peak DNP liver concentration (in vivo [4]; dose of DNP 5 mg/kg, rat): ~60 µM
- peak plasma DNP concentration (in vivo [4]; dose of DNP 5 mg/kg, rat): ~120 µM
- area under the plasma DNP concentration curve (in vivo [4]; oral, rats, 1 mg/kg ERDNP versus 25 mg/kg DNP): 4,311±555
- time of maximum concentration of DNP (in vivo [4]; plasma, rats, 1 mg/kg ERDNP versus 25 mg/kg DNP): one
- concentrations of DNP found to promote subtle increases in hepatic mitochondrial uncoupling (high fat fed rats): 1 to 5 µM
